The record followed here is BindingDB's records for patent US9708333 (Incyte Corporation, 2017).

What is called IC50 is the concentration needed to halve the response being measured.

Assay [1] has as its target Tyrosine-protein kinase JAK1 (Homo sapiens, UniProt P23458). Briefly: JAK1 Assay.
Assay [2] has as its target T1, Phosphatidylinositol 4,5-bisphosphate 3-kinase catalytic subunit delta isoform (Homo sapiens, UniProt O00329).
T1 sequence (O00329 whole entry): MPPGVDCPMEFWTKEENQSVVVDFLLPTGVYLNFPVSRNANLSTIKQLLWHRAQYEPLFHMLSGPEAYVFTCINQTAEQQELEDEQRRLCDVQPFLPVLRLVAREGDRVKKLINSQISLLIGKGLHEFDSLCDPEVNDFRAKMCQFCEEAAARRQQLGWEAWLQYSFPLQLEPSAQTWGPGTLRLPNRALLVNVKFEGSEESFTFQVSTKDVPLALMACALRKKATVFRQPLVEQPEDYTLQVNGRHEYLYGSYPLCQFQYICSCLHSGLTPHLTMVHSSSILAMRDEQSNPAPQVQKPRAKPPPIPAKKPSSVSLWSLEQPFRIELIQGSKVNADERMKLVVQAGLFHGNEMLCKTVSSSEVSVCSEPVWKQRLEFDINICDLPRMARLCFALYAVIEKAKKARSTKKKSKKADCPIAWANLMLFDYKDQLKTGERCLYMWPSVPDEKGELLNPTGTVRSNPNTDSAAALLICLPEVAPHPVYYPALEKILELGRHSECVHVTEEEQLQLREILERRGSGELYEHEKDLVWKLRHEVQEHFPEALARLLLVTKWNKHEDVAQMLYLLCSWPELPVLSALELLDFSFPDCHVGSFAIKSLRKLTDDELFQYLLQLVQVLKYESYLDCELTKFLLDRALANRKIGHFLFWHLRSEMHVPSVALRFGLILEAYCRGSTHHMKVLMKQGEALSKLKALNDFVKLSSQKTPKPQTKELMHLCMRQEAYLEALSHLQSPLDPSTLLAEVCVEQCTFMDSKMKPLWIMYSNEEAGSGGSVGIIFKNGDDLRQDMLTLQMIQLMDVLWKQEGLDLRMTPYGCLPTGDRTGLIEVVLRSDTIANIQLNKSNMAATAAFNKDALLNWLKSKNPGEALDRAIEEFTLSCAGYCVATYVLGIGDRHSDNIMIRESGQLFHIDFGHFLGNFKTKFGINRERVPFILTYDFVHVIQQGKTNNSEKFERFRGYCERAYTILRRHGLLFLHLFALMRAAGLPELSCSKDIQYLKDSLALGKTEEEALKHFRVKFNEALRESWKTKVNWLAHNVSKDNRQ
Nature of the assay: PI3K Delta Assay.
Description: Selectivity can be measured by methods routine in the art. In some embodiments, selectivity can be tested at the Km ATP concentration of each enzyme. In some embodiments, the selectivity of compounds described herein can be determined by cellular assays associated with particular PI3K kinase activity.

Tyrosine-protein kinase JAK1, sequence (P23458 whole entry, canonical isoform): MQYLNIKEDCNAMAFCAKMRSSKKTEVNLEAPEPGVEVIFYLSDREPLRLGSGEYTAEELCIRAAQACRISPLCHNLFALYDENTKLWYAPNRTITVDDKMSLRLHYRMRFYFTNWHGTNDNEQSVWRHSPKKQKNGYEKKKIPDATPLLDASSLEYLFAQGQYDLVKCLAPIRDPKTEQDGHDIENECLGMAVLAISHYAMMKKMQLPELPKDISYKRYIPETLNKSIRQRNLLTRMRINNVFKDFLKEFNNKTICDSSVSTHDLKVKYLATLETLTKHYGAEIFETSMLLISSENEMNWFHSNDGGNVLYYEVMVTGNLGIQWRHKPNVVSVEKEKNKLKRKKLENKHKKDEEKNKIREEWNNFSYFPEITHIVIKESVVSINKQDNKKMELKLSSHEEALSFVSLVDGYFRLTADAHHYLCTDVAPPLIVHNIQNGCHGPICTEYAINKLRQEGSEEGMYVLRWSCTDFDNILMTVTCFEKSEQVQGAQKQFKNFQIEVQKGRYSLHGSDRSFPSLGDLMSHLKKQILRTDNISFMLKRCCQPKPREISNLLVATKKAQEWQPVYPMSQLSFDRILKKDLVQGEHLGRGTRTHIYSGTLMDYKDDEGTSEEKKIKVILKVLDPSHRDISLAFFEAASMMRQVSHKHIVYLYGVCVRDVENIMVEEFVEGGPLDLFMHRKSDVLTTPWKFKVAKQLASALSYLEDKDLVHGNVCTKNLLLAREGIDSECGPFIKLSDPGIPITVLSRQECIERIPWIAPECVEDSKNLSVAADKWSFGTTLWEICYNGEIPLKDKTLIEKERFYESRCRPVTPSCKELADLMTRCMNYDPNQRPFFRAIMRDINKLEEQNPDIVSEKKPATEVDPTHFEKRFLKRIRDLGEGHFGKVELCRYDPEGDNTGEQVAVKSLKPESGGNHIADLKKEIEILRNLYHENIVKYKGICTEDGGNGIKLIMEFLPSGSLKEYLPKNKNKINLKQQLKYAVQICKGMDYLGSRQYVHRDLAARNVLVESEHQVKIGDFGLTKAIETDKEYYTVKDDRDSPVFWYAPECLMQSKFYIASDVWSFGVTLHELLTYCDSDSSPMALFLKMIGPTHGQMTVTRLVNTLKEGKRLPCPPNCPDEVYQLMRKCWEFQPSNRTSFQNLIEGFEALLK

`N#CCC(CN1CCN(C(=O)c2ccc(C#N)cc2F)CC1)n1cc(-c2ncnc3[nH]ccc23)cn1` (configuration not stated) [4-[(4-{3-cyano-2-[4-(7H-pyrrolo[2,3-d]pyrimidin-4-yl)-1H-pyrazol-1-yl]propyl}piperazin-1-yl)carbonyl]-3-fluorobenzonitrile]: the IC50 in assay [1] was < 10 nM.

`CCOc1c(C(C)n2nc(C)c3c(N)ncnc32)cc(Cl)c(F)c1C1CNC(=O)C1` (configuration not stated) [4-{3-[1-(4-amino-3-methyl-1H-pyrazolo[3,4 d]pyrimidin-1-yl)ethyl]-5-chloro-2-ethoxy-6-fluorophenyl}pyrrolidin-2-one] came in with an IC50 in assay [2] of 125 nM.
